Results: US20070072897A1, “Phenylaminopropanol derivatives and methods of their use” (Wyeth, priority 2005, published 2007)
Structures can show the parent of a compound that is named as a salt.

Key:
human hNET = target: T1, human hNET (Homo sapiens, UniProt P23975); test: Norepinephrine (NE) uptake assay in MDCK-Net6 cells; format: cell-based; settings: [3H]NE uptake; for EC50: MDCK-Net6 cells stably transfected with hNET; for inhibition at 1 µM: MDCK-Net6 cells, read-out: hNET Percentage inhibition at 1 μM
T1 construct: expressed in transfected cells; host or cells: MDCK (MDCK-Net6)

human 5-HT2A receptor = target: T2, human 5-HT2A receptor (Homo sapiens, UniProt P28223); test: 5-HT2A FLIPR assay (calcium response to DOI) in CHO cells; format: cell-based; settings: for IC50: antagonist inhibition of 3 nM DOI stimulation, CHO cells, FLIPR; for inhibition at 1 µM: CHO, read-out: 5-HT2A Percentage inhibition at 1 μM
T2 construct: expressed in transfected cells; host or cells: CHO
Experimental: Cells are washed with PBS without Ca^2+ and 3 mL Trypsin is added to dissociate cells. After 3 minute incubation, 7 mL Trypsin Neutralizing Solution is added. Cells are then aspirated from flask and mixed in a 50 mL conical tube. 10 μL sample is used to count cells on a hemacytometer. […] Two 96-well drug plates are prepared for each cell plate. Plate 1 will contain compounds to be tested and plate 2 will contain the agonist DOI (3 nM) to activate a calcium response. Specific details of compound preparation are listed below. […] Outside wells are not used due to an edge effect seen in these cells. The reference compounds DOI and 5-HT are used as standard 5HT agonists. […] Standards for plate one are Vehicle, 1 μM DOI, and 3 nM MDL. […] On the day of the assay, test compound solutions of appropriate concentrations are diluted in assay buffer as described for single concentration testing. This procedure is followed to ensure that the solvent concentration is consistent across dilutions. The typical concentration testing range of compounds is 10^−10—10^−5 M in half log or full log increments. A 10 μM DOI stock is diluted to 60 nM and added to the respective wells. The pipeting station of the FLIPR will make an additional 20-fold dilution for a final concentration of 3 nM. Standards for this plate include Vehicle and 3 nM DOI. Contents of dye vial (Molecular Devices #R8090) are dissolved in 100 mL of 1×HBSS supplemented with 20 mM HEPES. Aliquots can be frozen at −20° C. for up to one week for future use. On the day of assay, dye is thawed and diluted to half concentration. […] Cells are allowed to adhere for 24 hours in 96-well plates. […] Cell, compound and DOI plates are loaded into the FLIPR machine. The baseline fluorescence level is read once every second for 1 minute. Compound (10 μL) is transferred from the compound plate to the cells and the fluorescence level recorded every 6 seconds for 2 minutes to determine any agonist activity. Baseline fluorescence is recorded again every second for 10 seconds. For antagonist determination, 10 μL of 3 nM DOI is transferred from the DOI plate to the cells and the fluorescence level recorded every 6 seconds for 5 minutes. The pipetting unit of the FLIPR machine completes all transfers. […] The data are log transformed prior to analysis.

T1 sequence (P23975 whole entry): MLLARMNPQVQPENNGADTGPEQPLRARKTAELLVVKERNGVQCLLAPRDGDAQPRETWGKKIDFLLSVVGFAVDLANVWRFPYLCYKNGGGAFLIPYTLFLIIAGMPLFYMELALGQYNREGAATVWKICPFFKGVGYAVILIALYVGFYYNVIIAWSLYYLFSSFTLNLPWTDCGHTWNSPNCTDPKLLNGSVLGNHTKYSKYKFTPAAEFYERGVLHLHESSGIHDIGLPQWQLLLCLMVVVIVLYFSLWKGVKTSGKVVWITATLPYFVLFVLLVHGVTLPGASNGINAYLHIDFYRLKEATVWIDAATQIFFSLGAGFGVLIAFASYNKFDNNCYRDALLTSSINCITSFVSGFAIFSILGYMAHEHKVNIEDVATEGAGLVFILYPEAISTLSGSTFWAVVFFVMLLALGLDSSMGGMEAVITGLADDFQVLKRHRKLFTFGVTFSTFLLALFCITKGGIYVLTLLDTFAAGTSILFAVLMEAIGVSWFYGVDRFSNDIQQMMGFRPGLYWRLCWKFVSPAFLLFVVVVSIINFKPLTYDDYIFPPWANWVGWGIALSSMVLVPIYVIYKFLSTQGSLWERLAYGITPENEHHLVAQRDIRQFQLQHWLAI
T2 sequence (P28223 whole entry): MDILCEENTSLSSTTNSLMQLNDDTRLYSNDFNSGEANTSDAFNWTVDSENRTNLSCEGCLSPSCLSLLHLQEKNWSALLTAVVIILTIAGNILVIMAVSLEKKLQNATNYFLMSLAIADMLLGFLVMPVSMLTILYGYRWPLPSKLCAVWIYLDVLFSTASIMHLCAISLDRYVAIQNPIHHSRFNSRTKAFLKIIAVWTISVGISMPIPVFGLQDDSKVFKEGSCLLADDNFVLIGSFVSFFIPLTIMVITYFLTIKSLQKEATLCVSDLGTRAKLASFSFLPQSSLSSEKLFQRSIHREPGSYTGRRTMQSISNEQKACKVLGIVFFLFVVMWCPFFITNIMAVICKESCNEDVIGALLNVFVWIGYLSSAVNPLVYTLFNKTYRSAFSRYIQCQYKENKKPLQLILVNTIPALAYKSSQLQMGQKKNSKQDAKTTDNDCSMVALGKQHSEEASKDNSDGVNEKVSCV

For `CNC[C@@H](O)[C@H](c1ccccc1)n1ccc2cc(OCc3ccccc3Cl)ccc21` [Example 8, (1S,2R)-1-{5-[(2-chlorobenzyl)oxy]-1H-indol-1-yl}-3-(methylamino)-1-phenylpropan-2-ol hydrochloride], which EC50 (human hNET) is on record?
The EC50 was 147 nM.

And the IC50 (human 5-HT2A receptor)?
Its IC50 is 658 nM.

Which results are given for `CCNC[C@@H](O)[C@H](c1ccccc1)n1ccc2cc(OCc3ccccc3)ccc21` [Example 83, (1S,2R)-1-[5-(benzyloxy)-1H-indol-1-yl]-3-(ethylamino)-1-phenylpropan-2-ol hydrochloride]?
inhibition at 1 µM (human hNET): 43%; IC50 (human 5-HT2A receptor): 380 nM

For `CN(C)C[C@@H](O)[C@H](c1ccccc1)n1ccc2cc(OCc3ccccc3)ccc21` [Example 86, (1S,2R)-1-[5-(benzyloxy)-1H-indol-1-yl]-3-(dimethylamino)-1-phenylpropan-2-ol hydrochloride], which inhibition at 1 µM (human hNET) is on record?
The inhibition at 1 µM was 22%.

What about the IC50 (human 5-HT2A receptor) of the same compound?
Its IC50 is 263 nM.

With `CNC[C@@H](O)[C@H](c1ccccc1)n1ccc2cc(OCc3ccc(F)cc3)ccc21` [Example 13, (1S,2R)-1-{5-[(4-fluorobenzyl)oxy]-1H-indol-1-yl}-3-(methylamino)-1-phenylpropan-2-ol hydrochloride] as the compound, how does the EC50 (human hNET) read?
The EC50 was 31 nM.

And the IC50 (human 5-HT2A receptor)?
Its IC50 is 468 nM.

For `CCCNC[C@@H](O)[C@H](c1ccccc1)N1C(=O)C2(CCCCC2)c2ccc(F)cc21` [Example 98, 6′-fluoro-1′-[(1S,2R)-2-hydroxy-1-phenyl-3-(propylamino)propyl]spiro[cyclohexane-1,3′-indol]-2′(1′H)-one hydrochloride], which inhibition at 1 µM (human hNET) is on record?
The inhibition at 1 µM was 0%.

What about the IC50 (human 5-HT2A receptor) of the same compound?
The IC50 was 672 nM.

With `CNC[C@@H](O)[C@H](c1ccccc1)N1C(=O)C2(CCCCC2)c2cccc(Cl)c21` [Example 31, 7′-Chloro-1′-[(1S,2R)-2-hydroxy-3-(methylamino)-1-phenylpropyl]spiro[cyclohexane-1,3′-indol]-2′(1′H)-one hydrochloride] as the compound, how does the EC50 (human hNET) read?
Its EC50 is 32 nM.

And the IC50 (human 5-HT2A receptor)?
Its IC50 is 203 nM.

`CNC[C@@H](O)[C@H](c1ccccc1)N1C(=O)C2(CCCCC2)c2cc(F)ccc21` [Example 30, 5′-fluoro-1′-[(1S,2R)-2-hydroxy-3-(methylamino)-1-phenylpropyl]spiro[cyclohexane-1,3′-indol]-2′(1′H)-one hydrochloride] was tested. Which EC50 (human hNET) did it give?
Its EC50 is 41 nM.

What about the IC50 (human 5-HT2A receptor) of the same compound?
Its IC50 is 283 nM.

For `CNC[C@@H](O)[C@H](c1ccccc1)N1C(=O)C2(CCCCC2)c2c1ccc(F)c2F` [Example 109, 4′,5′-difluoro-1′-[(1S,2R)-2-hydroxy-3-(methylamino)-1-phenylpropyl]spiro[cyclohexane-1,3′-indol]-2′(1′H)-one hydrochloride], which EC50 (human hNET) is on record?
The EC50 was 107 nM.

And the IC50 (human 5-HT2A receptor)?
The IC50 was 1480 nM.

What does the source list for `CCNC[C@@H](O)[C@H](c1ccccc1)N1C(=O)C2(CCCCC2)c2ccc(F)cc21` [Example 96, 1′-[(1S,2R)-3-(ethylamino)-2-hydroxy-1-phenylpropyl]-6′-fluorospiro[cyclohexane-1,3′-indol]-2′(1′H)-one hydrochloride]?
inhibition at 1 µM (human hNET): 48%; IC50 (human 5-HT2A receptor): 462 nM

For `CNC[C@@H](O)[C@H](c1ccccc1)N1C(=O)C2(CCCCC2)c2ccc(F)cc21` [Example 29, 6′-fluoro-1′-[(1S,2R)-2-hydroxy-3-(methylamino)-1-phenylpropyl]spiro[cyclohexane-1,3′-indol]-2′(1′H)-one hydrochloride], which EC50 (human hNET) is on record?
The EC50 was 43 nM.

And the IC50 (human 5-HT2A receptor)?
Its IC50 is 106 nM.

How did the inhibition at 1 µM (human hNET) turn out when `CCN(CC)C[C@@H](O)[C@H](c1ccccc1)n1ccc2cc(OCc3ccccc3)ccc21` [Example 88, (1S,2R)-1-[5-(benzyloxy)-1H-indol-1-yl]-3-(diethylamino)-1-phenylpropan-2-ol hydrochloride] was run?
Its inhibition at 1 µM is 21%.

And the inhibition at 1 µM (human 5-HT2A receptor)?
Its inhibition at 1 µM is 33%.

For `CNC[C@@H](O)[C@H](c1ccccc1)n1ccc2cccc(-c3ccccc3)c21` [Example 23, (1S,2R)-3-(methylamino)-1-phenyl-1-(7-phenyl-1H-indol-1-yl)propan-2-ol hydrochloride], which inhibition at 1 µM (human hNET) is on record?
The inhibition at 1 µM was 48%.

And the IC50 (human 5-HT2A receptor)?
Its IC50 is 2600 nM.

Which inhibition at 1 µM (human hNET) does the source give for `CNC[C@@H](O)[C@H](c1ccccc1)n1ccc2ccc(OCc3ccccc3)cc21` [Example 3, (1S,2R)-1-[6-(benzyloxy)-1H-indol-1-yl]-3-(methylamino)-1-phenylpropan-2-ol hydrochloride] here?
Its inhibition at 1 µM is 2%.

And the inhibition at 1 µM (human 5-HT2A receptor)?
Its inhibition at 1 µM is 39%.

Which EC50 (human hNET) does the source give for `CNC[C@@H](O)[C@H](c1ccccc1)N1CCc2cc(C(=O)Nc3cccc(Cl)c3)ccc21` [Example 78, N-(3-Chlorophenyl)-1-[(1S,2R)-2-hydroxy-3-(methylamino)-1-phenylpropyl]indoline-5-carboxamide hydrochloride] here?
The EC50 was 362 nM.

And the IC50 (human 5-HT2A receptor)?
The IC50 was 691 nM.

What does the source list for `CN(C)C[C@@H](O)[C@H](c1ccccc1)N1C(=O)C2(CCCCC2)c2cc(F)ccc21` [Example 103, 1′-[(1S,2R)-3-(dimethylamino)-2-hydroxy-1-phenylpropyl]-5′-fluorospiro[cyclohexane-1,3′-indol]-2′(1′H)-one hydrochloride]?
inhibition at 1 µM (human hNET): 19%; IC50 (human 5-HT2A receptor): 77 nM

For `CNC[C@@H](O)[C@H](c1ccccc1)n1ccc2cc(OCCc3ccccc3)ccc21` [Example 18, (1S,2R)-3-(methylamino)-1-phenyl-1-[5-(2-phenylethoxy)-1H-indol-1-yl]propan-2-ol hydrochloride], which EC50 (human hNET) is on record?
The EC50 was 219 nM.

What about the IC50 (human 5-HT2A receptor) of the same compound?
The IC50 was 1200 nM.

What does the source list for `CNC[C@@H](O)[C@H](c1ccccc1)n1ccc2cc(OCc3ccccc3F)ccc21` [Example 11, (1S,2R)-1-{5-[(2-fluorobenzyl)oxy]-1H-indol-1-yl}-3-(methylamino)-1-phenylpropan-2-ol hydrochloride]?
EC50 (human hNET): 52 nM; IC50 (human 5-HT2A receptor): 1260 nM

What does the source list for `CNC[C@@H](O)[C@H](c1ccccc1)n1ccc2cc(C(=O)Nc3cccc(Cl)c3)ccc21` [Example 79, N-(3-Chlorophenyl)-1-[(1S,2R)-2-hydroxy-3-(methylamino)-1-phenylpropyl]-1H-indole-5-carboxamide hydrochloride]?
EC50 (human hNET): 328 nM; IC50 (human 5-HT2A receptor): 84 nM

Which results are given for `CNC[C@@H](O)[C@H](c1ccccc1)N1CCc2cc(OCc3ccccc3)ccc21` [Example 26, (1S,2R)-1-[5-(benzyloxy)-2,3-dihydro-1H-indol-1-yl]-3-(methylamino)-1-phenylpropan-2-ol hydrochloride]?
EC50 (human hNET): 45 nM; inhibition at 1 µM (human 5-HT2A receptor): 23%

How did the EC50 (human hNET) turn out when `CNC[C@@H](O)[C@H](c1ccccc1)n1ccc2cc(CCc3ccccc3)ccc21` [Example 94, (1S,2R)-3-(methylamino)-1-phenyl-1-[5-(2-phenylethyl)-1H-indol-1-yl]propan-2-ol hydrochloride] was run?
The EC50 was 86 nM.

And the IC50 (human 5-HT2A receptor)?
Its IC50 is 636 nM.

For `O[C@H](CN1CCCC1)[C@H](c1ccccc1)n1ccc2cc(OCc3ccccc3)ccc21` [Example 89, (1S,2R)-1-[5-(benzyloxy)-1H-indol-1-yl]-1-phenyl-3-pyrrolidin-1-ylpropan-2-ol hydrochloride], which inhibition at 1 µM (human hNET) is on record?
Its inhibition at 1 µM is 14%.

What about the inhibition at 1 µM (human 5-HT2A receptor) of the same compound?
Its inhibition at 1 µM is 32%.

For `CNC[C@@H](O)[C@H](c1ccccc1)n1ccc2c(OCc3ccccc3)cccc21` [Example 2, (1S,2R)-1-[4-(benzyloxy)-1H-indol-1-yl]-3-(methylamino)-1-phenylpropan-2-ol hydrochloride], which EC50 (human hNET) is on record?
Its EC50 is 310 nM.

And the inhibition at 1 µM (human 5-HT2A receptor)?
The inhibition at 1 µM was 29%.

What does the source list for `CNC[C@@H](O)[C@H](c1ccccc1)n1ccc2cc(NC(=O)c3cccc(Cl)c3)ccc21` [Example 73, 3-Chloro-N-{1-[(1S,2R)-2-hydroxy-3-(methylamino)-1-phenylpropyl]-1H-indol-5-yl}benzamide hydrochloride]?
EC50 (human hNET): 91 nM; IC50 (human 5-HT2A receptor): 625 nM

Which results are given for `CNC[C@@H](O)[C@H](c1ccccc1)N1CC2(CCCCC2)c2ccccc21` [Example 33, (1S,2R)-3-(methylamino)-1-phenyl-1-spiro[cyclohexane-1,3′-indol]-1′(2′H)-ylpropan-2-ol hydrochloride]?
EC50 (human hNET): 29 nM; inhibition at 1 µM (human 5-HT2A receptor): 13%

Which EC50 (human hNET) does the source give for `CNC[C@@H](O)[C@H](c1ccccc1)n1ccc2cc(OCc3ccccc3)ccc21` [Example 1, (1S,2R)-1-[5-(benzyloxy)-1H-indol-1-yl]-3-(methylamino)-1-phenylpropan-2-ol hydrochloride] here?
Its EC50 is 18 nM.

What about the IC50 (human 5-HT2A receptor) of the same compound?
Its IC50 is 234 nM.

For `CC(C)NC[C@@H](O)[C@H](c1ccccc1)N1C(=O)C2(CCCCC2)c2ccc(F)cc21` [Example 97, 6′-fluoro-1′-[(1S,2R)-2-hydroxy-3-(isopropylamino)-1-phenylpropyl]spiro[cyclohexane-1,3′-indol]-2′(1′H)-one hydrochloride], which inhibition at 1 µM (human hNET) is on record?
The inhibition at 1 µM was 0%.

And the inhibition at 1 µM (human 5-HT2A receptor)?
Its inhibition at 1 µM is 44%.
